Results published in patent US12649722B2, “Herbicidal cinnoline derivatives” (SYNGENTA CROP PROTECTION AG, priority 2020, dated 2026).

Tests used:
Format in all cases: in vivo
Solarium nigrum (SOLNI) [1] = experiment: Pre-emergence Test, SOLNI; details: 1000 g/ha, evaluated after 13 days
ZEAMX [2] = experiment: Pre-emergence Test, ZEAMX; details: 1000 g/ha, evaluated after 13 days
[3] = tested on: Echinochloa crus-galli (ECHCG); experiment: Pre-emergence Test, ECHCG; details: 1000 g/ha, evaluated after 13 days
[4] = tested on: Ipornoea hederacea (IPOHE); experiment: Pre-emergence Test, IPOHE; details: 1000 g/ha, evaluated after 13 days
[5] = tested on: Amaranthus retoflexus (AMARE); experiment: Pre-emergence Test, AMARE; details: 1000 g/ha, evaluated after 13 days
Setaria faberi (SETFA) [6] = experiment: Post-emergence Test, SETFA; details: sprayed after 8 days cultivation, 1000 g/ha, evaluated after 13 days
In short: (§1)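 Pots sown with AMARE, SOLNI, SETFA, LOLPE, ECHCG, IPOHE, kept in glasshouse (24/16 °C, 14 h light, 65% humidity), sprayed at 1000 g/ha unless stated, in acetone/water 50:50 with 0.5% Tween 20. Damage scored after 13 days on a 0–5 scale (5=81–100%, 0=0%).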

Lolium perenne (LOLPE) [7] = experiment: Pre-emergence Test, LOLPE; details: 1000 g/ha, evaluated after 13 days
[8] = tested on: Echinochloa crus-galli (ECHCG); experiment: Post-emergence Test, ECHCG; details: sprayed after 8 days cultivation, 1000 g/ha, evaluated after 13 days
In short: as §1

ABUTH [9] = experiment: Post-emergence Test, ABUTH; details: sprayed after 8 days cultivation, 1000 g/ha, evaluated after 13 days
ABUTH [10] = experiment: Pre-emergence Test, ABUTH; details: 1000 g/ha, evaluated after 13 days
Solarium nigrum (SOLNI) [11] = experiment: Post-emergence Test, SOLNI; details: sprayed after 8 days cultivation, 1000 g/ha, evaluated after 13 days
Method: (§2) Seeds of a variety of test species are sown in standard soil in pots (Amaranthus retoflexus (AMARE), Solarium nigrum (SOLNI), Setaria faberi (SETFA), Lolium perenne (LOLPE), Echinochloa crus-galli (ECHCG), Ipornoea hederacea (IPOHE)). After 8 days cultivation under controlled conditions in a glasshouse (at 24° C./16° C., day/night; 14 hours light; 65% humidity), the plants are sprayed with an aqueous spray solution derived from the formulation of the technical active ingredient in acetone/water (50:50) solution containing 0.5% Tween 20 (polyoxyethylene sorbitan monolaurate, CAS RN 9005-64-5). Compounds are applied at 1000 g/ha unless otherwise stated. The test plants are then grown in a glasshouse under controlled conditions in a glasshouse (at 24° C./16° C., day/night; 14 hours light; 65% humidity) and watered twice daily. After 13 days the test is evaluated for the percentage damage caused to the plant. The biological activities are shown in the following table on a five-point scale (5=81-100%; 4=61-80%; 3=41-60%; 2=21-40%; 1=10-20%; 0=0%; −=not tested).

Lolium perenne (LOLPE) [12] = experiment: Post-emergence Test, LOLPE; details: sprayed after 8 days cultivation, 1000 g/ha, evaluated after 13 days
Method: as §2

[13] = tested on: Ipornoea hederacea (IPOHE); experiment: Post-emergence Test, IPOHE; details: sprayed after 8 days cultivation, 1000 g/ha, evaluated after 13 days
In short: as §1

ZEAMX [14] = experiment: Post-emergence Test, ZEAMX; details: sprayed after 8 days cultivation, 1000 g/ha, evaluated after 13 days
Setaria faberi (SETFA) [15] = experiment: Pre-emergence Test, SETFA; details: 1000 g/ha, evaluated after 13 days
[16] = tested on: Amaranthus retoflexus (AMARE); experiment: Post-emergence Test, AMARE; details: sprayed after 8 days cultivation, 1000 g/ha, evaluated after 13 days
In short: as §1

SMILES	percentage damage caused to the plant, SOLNI (Solarium nigrum (SOLNI) [1])	percentage damage caused to the plant, ZEAMX (ZEAMX [2])	percentage damage caused to the plant, ECHCG [3]	percentage damage caused to the plant, IPOHE [4]	percentage damage caused to the plant, AMARE [5]	percentage damage caused to the plant, SETFA (Setaria faberi (SETFA) [6])	percentage damage caused to the plant, LOLPE (Lolium perenne (LOLPE) [7])	percentage damage caused to the plant, ECHCG [8]	percentage damage caused to the plant, ABUTH (ABUTH [9])	percentage damage caused to the plant, ABUTH (ABUTH [10])	percentage damage caused to the plant, SOLNI (Solarium nigrum (SOLNI) [11])	percentage damage caused to the plant, LOLPE (Lolium perenne (LOLPE) [12])	percentage damage caused to the plant, IPOHE [13]	percentage damage caused to the plant, ZEAMX (ZEAMX [14])	percentage damage caused to the plant, SETFA (Setaria faberi (SETFA) [15])	percentage damage caused to the plant, AMARE [16]
C=C(OCC)c1cccc2c1c(=O)c(C(=O)OC)nn2-c1ccc(OC(F)(F)F)cc1 [Compound P3, methyl 5-(1-ethoxyvinyl)-4-oxo-1-[4-(trifluoromethoxy)phenyl] cinnoline-3-carboxylate]	2 (2=21-40%)	4 (4=61-80%)	4 (4=61-80%)	2 (2=21-40%)	0 (0=0%)	4 (4=61-80%)	4 (4=61-80%)	4 (4=61-80%)	3 (3=41-60%)	3 (3=41-60%)	4 (4=61-80%)	4 (4=61-80%)	3 (3=41-60%)	3 (3=41-60%)	5 (5=81-100%)	1 (1=10-20%)
N#Cc1cccc2c1c(=O)c(C(=O)O)nn2-c1ccc(OC(F)(F)F)cc1 [Compound P8, 5-cyano-4-oxo-1-[4-(trifluoromethoxy)phenyl] cinnoline-3-carboxylic acid]	1 (1=10-20%)	0 (0=0%)	5 (5=81-100%)	1 (1=10-20%)	2 (2=21-40%)	4 (4=61-80%)	4 (4=61-80%)	4 (4=61-80%)	1 (1=10-20%)	1 (1=10-20%)	3 (3=41-60%)	4 (4=61-80%)	4 (4=61-80%)	2 (2=21-40%)	5 (5=81-100%)	4 (4=61-80%)
COC(=O)c1nn(-c2ccc(OC(F)(F)F)cc2)c2cccc(C(C)=O)c2c1=O [Compound P9, methyl 5-acetyl-4-oxo-1-[4-(trifluoromethoxy)phenyl] cinnoline-3-carboxylate]	3 (3=41-60%)	4 (4=61-80%)	5 (5=81-100%)	3 (3=41-60%)	1 (1=10-20%)	4 (4=61-80%)	4 (4=61-80%)	4 (4=61-80%)	3 (3=41-60%)	3 (3=41-60%)	4 (4=61-80%)	4 (4=61-80%)	2 (2=21-40%)	4 (4=61-80%)	5 (5=81-100%)	1 (1=10-20%)
